Our source for the IC50 values is patent publication US20250197389A1, “NITROGEN-CONTAINING HETEROCYCLIC COMPOUND” (SHANGHAI SHIJIANG BIOTECHNOLOGY CO., LTD, priority 2022, published 2025).

pIC50: −log10 of the molar value.

One assay has as its system mPTP-active Daoy cell. The experiment in a line: Inhibitory effect on mPTP-active Daoy cell (Promega CellTiter-Glo, intracellular ATP). The format is cell-based, human. The conditions noted are these: Daoy cell transfected with empty virus vector without PPIF shRNA.
One may read the pIC50 as the IC50 on a negative log10 scale, so that one unit is a factor of ten. Read a high pIC50 as a small IC50. For the compound `COc1ccc2c(c1OCCCCNC(=O)OC(C)(C)C)C(C(Cl)(Cl)Cl)N1CCc3cc4c(cc3C1=C2)OCO4` (stereo not shown) [AB35423], the pIC50 was 5.32.

Turning to `[2H]C1([2H])c2c(ccc(OC)c2OC)C=C2c3cc4c(cc3CCN21)OCO4` [AB36476], the negative logarithm of the IC50 (pIC50) is 5.62.

The assay is the same for the next values; noted with them: Homo sapiens, Daoy, Daoy cell transfected with empty virus vector without PPIF shRNA.
`COc1ccc2c(c1N1CCN(C)CC1)C(C(Cl)(Cl)Cl)N1CCc3cc4c(cc3C1=C2)OCO4` (stereo not shown) [AB35518] had a pIC50 of 5.08.

`COc1ccc2c(c1OCCCBr)CN1CCc3cc4c(cc3C1C2)OCO4` (stereo not shown) [AB31878] showed a pIC50 of 4.98.

For the compound `COc1ccc2c(c1OC)C(C1CCCCC1=O)N1CCc3cc4c(cc3C1=C2)OCO4` (stereo not shown) [AB36525], the pIC50 was 5.82.

Compound `CCC1=C2c3cc4c(cc3CCN2C(C(Cl)(Cl)Cl)c2c1ccc(OC)c2OC)OCO4` (stereo not shown) [AB35488] showed a pIC50 of 5.28.

With `COc1ccc2c(c1OCCCF)C(C)N1CCc3cc4c(cc3C1=C2)OCO4` (stereo not shown) [AB35485], the pIC50 is 4.79.

As to `[2H]C([2H])([2H])Oc1c(OC)ccc2c1C(C1CCCC1)N1CCc3cc4c(cc3C1=C2)OCO4` (stereo not shown) [AB36501], the negative logarithm of the IC50 (pIC50) is 4.89.

The compound `CCOc1c(OC)ccc2c1CN1CCc3cc4c(cc3C1=C2)OCO4` [AB35594] had a pIC50 of 5.58.

Compound `CCCCN1CCN(c2c(OC)ccc3c2C(C(Cl)(Cl)Cl)N2CCc4cc5c(cc4C2=C3)OCO5)CC1` (stereo not shown) [AB35445] had a pIC50 of 4.92.

For the compound `COc1ccc2c(c1N1CCC(Cl)CC1)CN1CCc3cc4c(cc3C1=C2)OCO4` [AB35550], the pIC50 was 5.20.

In the case of `CCCC1=C2c3cc4c(cc3CCN2C(C2CCCC2)c2c1ccc(OC)c2OC)OCO4` (stereo not shown) [AB35504], the pIC50 was 4.98.

For `COc1ccc2c(c1OC)C(C(Cl)(Cl)Cl)N1CCc3cc4c(cc3C1=C2CCCCCCCl)OCO4` (stereo not shown) [AB35524], the negative logarithm of the IC50 (pIC50) was 5.39.

With `COc1ccc2c(c1OCCCCCl)C(C(Cl)(Cl)Cl)N1CCc3cc4c(cc3C1=C2)OCO4` (stereo not shown) [AB35496], the pIC50 is 4.91.

Regarding `COc1ccc2c(c1OC)CN1CCc3cc4c(cc3C1=C2Cc1ccc(OC(F)(F)F)cc1)OCO4` [AB31866], the pIC50 is 5.17.

`COc1ccc2c(c1OC)C(C1CCCC1)N1CCc3cc4c(cc3C1C2)OCO4` (stereo not shown) [AB36497] had a negative-log IC50 (pIC50) of 4.17.

In turn, `COc1ccc2c(c1OCCCF)CN1CCc3cc4c(cc3C1=C2)OCO4` [AB35590] had a negative logarithm of the IC50 (pIC50) of 5.34.

For the compound `CCCCCC1=C2c3cc4c(cc3CCN2C(C(Cl)(Cl)Cl)c2c1ccc(OC)c2OC)OCO4` (stereo not shown) [AB35418], the negative logarithm of the IC50 (pIC50) was 5.49.

With `COc1ccc2c(c1OCCBr)CN1CCc3cc4c(cc3C1=C2)OCO4` [AB36403], the negative-log IC50 (pIC50) was 5.78.

Compound `CCCC1=C2c3cc4c(cc3CCN2C(C(Cl)(Cl)Cl)c2c1ccc(OC)c2OC)OCO4` (stereo not shown) [AB35492] gave a pIC50 of 5.42.

Take `COc1ccc2c(c1NCCc1ccccc1)C(C1CCCC1)N1CCc3cc4c(cc3C1=C2)OCO4` (stereo not shown) [AB35457]: the negative-log IC50 (pIC50) is 5.49.

The compound `COc1ccc2c(c1OC)C(C1CCCC1)N1CCc3cc4c(cc3C1=C2CCCc1ccccc1)OCO4` (stereo not shown) [AB35436] gave a pIC50 of 5.32.

The compound `COc1ccc2c(c1NCCc1ccccc1)C(C)N1CCc3cc4c(cc3C1=C2)OCO4` (stereo not shown) [AB31895] gave a pIC50 of 5.50.

The test system of another assay is mPTP-inactive Daoy cell. Description: Inhibitory effect on mPTP-inactive Daoy cell (PPIF shRNA; Promega CellTiter-Glo, intracellular ATP). The format is cell-based, human. The conditions noted are these: Daoy cell transfected with virus vector carrying PPIF shRNA. From the text: The activity of mitochondria permeability transition pore (mPTP) was regulated by the PPIF protein. […] PPIF protein activity was restricted by the expression level of PPIF protein in cell.
For orientation: ATP-based viability assays read luminescence as a measure of living cells.
Regarding `COc1ccc2c(c1OCCCCNC(=O)OC(C)(C)C)C(C(Cl)(Cl)Cl)N1CCc3cc4c(cc3C1=C2)OCO4` (stereo not shown) [AB35423], the negative-log IC50 (pIC50) is 5.63.

Take `[2H]C1([2H])c2c(ccc(OC)c2OC)C=C2c3cc4c(cc3CCN21)OCO4` [AB36476]: the pIC50 is 5.96.

The assay is the same for the next values; noted with them: Homo sapiens, Daoy, Daoy cell transfected with virus vector carrying PPIF shRNA.
The compound `COc1ccc2c(c1N1CCN(C)CC1)C(C(Cl)(Cl)Cl)N1CCc3cc4c(cc3C1=C2)OCO4` (stereo not shown) [AB35518] had a negative logarithm of the IC50 (pIC50) of 5.51.

As to `COc1ccc2c(c1OCCCBr)CN1CCc3cc4c(cc3C1C2)OCO4` (stereo not shown) [AB31878], the pIC50 is 4.96.

`COc1ccc2c(c1OC)C(C1CCCCC1=O)N1CCc3cc4c(cc3C1=C2)OCO4` (stereo not shown) [AB36525] had a negative-log IC50 (pIC50) of 5.78.

`CCC1=C2c3cc4c(cc3CCN2C(C(Cl)(Cl)Cl)c2c1ccc(OC)c2OC)OCO4` (stereo not shown) [AB35488] showed a pIC50 of 5.69.

`COc1ccc2c(c1OCCCF)C(C)N1CCc3cc4c(cc3C1=C2)OCO4` (stereo not shown) [AB35485] had a pIC50 of 5.28.

As for `[2H]C([2H])([2H])Oc1c(OC)ccc2c1C(C1CCCC1)N1CCc3cc4c(cc3C1=C2)OCO4` (stereo not shown) [AB36501], the pIC50 is 5.46.

Take `CCOc1c(OC)ccc2c1CN1CCc3cc4c(cc3C1=C2)OCO4` [AB35594]: the pIC50 was 5.96.

On to `CCCCN1CCN(c2c(OC)ccc3c2C(C(Cl)(Cl)Cl)N2CCc4cc5c(cc4C2=C3)OCO5)CC1` (stereo not shown) [AB35445], for which the pIC50 is 5.20.

As for `COc1ccc2c(c1N1CCC(Cl)CC1)CN1CCc3cc4c(cc3C1=C2)OCO4` [AB35550], the negative-log IC50 (pIC50) is 5.69.

In turn, `CCCC1=C2c3cc4c(cc3CCN2C(C2CCCC2)c2c1ccc(OC)c2OC)OCO4` (stereo not shown) [AB35504] had a negative logarithm of the IC50 (pIC50) of 5.37.

Turning to `COc1ccc2c(c1OC)C(C(Cl)(Cl)Cl)N1CCc3cc4c(cc3C1=C2CCCCCCCl)OCO4` (stereo not shown) [AB35524], the negative-log IC50 (pIC50) is 5.72.

The compound `COc1ccc2c(c1OCCCCCl)C(C(Cl)(Cl)Cl)N1CCc3cc4c(cc3C1=C2)OCO4` (stereo not shown) [AB35496] showed a pIC50 of 5.28.

Compound `COc1ccc2c(c1OC)CN1CCc3cc4c(cc3C1=C2Cc1ccc(OC(F)(F)F)cc1)OCO4` [AB31866] had a pIC50 of 5.47.

On to `COc1ccc2c(c1OC)C(C1CCCC1)N1CCc3cc4c(cc3C1C2)OCO4` (stereo not shown) [AB36497], for which the pIC50 was 4.16.

In turn, `COc1ccc2c(c1OCCCF)CN1CCc3cc4c(cc3C1=C2)OCO4` [AB35590] gave a pIC50 of 5.85.

On to `CCCCCC1=C2c3cc4c(cc3CCN2C(C(Cl)(Cl)Cl)c2c1ccc(OC)c2OC)OCO4` (stereo not shown) [AB35418], for which the pIC50 is 5.81.

The compound `COc1ccc2c(c1OCCBr)CN1CCc3cc4c(cc3C1=C2)OCO4` [AB36403] had a negative logarithm of the IC50 (pIC50) of 6.27.

Regarding `CCCC1=C2c3cc4c(cc3CCN2C(C(Cl)(Cl)Cl)c2c1ccc(OC)c2OC)OCO4` (stereo not shown) [AB35492], the pIC50 was 5.87.

`COc1ccc2c(c1NCCc1ccccc1)C(C1CCCC1)N1CCc3cc4c(cc3C1=C2)OCO4` (stereo not shown) [AB35457]: the pIC50 was 5.82.

Turning to `COc1ccc2c(c1OC)C(C1CCCC1)N1CCc3cc4c(cc3C1=C2CCCc1ccccc1)OCO4` (stereo not shown) [AB35436], the negative logarithm of the IC50 (pIC50) was 5.64.

Compound `COc1ccc2c(c1NCCc1ccccc1)C(C)N1CCc3cc4c(cc3C1=C2)OCO4` (stereo not shown) [AB31895] showed a negative-log IC50 (pIC50) of 5.84.
